Columns and labels:
HepG2 [1] = assay: Clonogenic assay; format: cell-based; details: 2.5 and 5 μM, 10 days
Protocol: (§1) HepG2 and Hep3B were each seeded in 12-well plates at the density of 3×10^3 cells/well and cultured for 24 hours. Then, Sorafenib and the compound of Example 1 were treated thereto at 2.5 and 5 μM each and cultured for 10 days. Upon completion of the culture, the cells were washed with PBS, fixed with 37% formaldehyde, and stained with 0.01% crystal violet. After staining, the cells were washed with distilled water and the colonies of stained cells were photographed.

Hep3B [2] = assay: Clonogenic assay; format: cell-based; details: 2.5 and 5 μM, 10 days
Protocol: as §1

HepG2 [3] = assay: WST-8 cell viability assay, hepatocellular carcinoma cell line; format: cell-based; details: 24, 48 and 72 hours
Protocol: (§2) Specifically, the WST-8 assay to check the cell viability of HepG2 and Hep3B, which are hepatocellular carcinoma cell lines shown in FIGS. 7A-7C and 8A-8C, was performed as follows. HepG2 and Hep3B were each seeded in 96-well plates at the density of 5×10^3 cells/well and cultured for 24 hours. Then, Sorafenib and OPT-0139 were diluted stepwise at a twofold concentration and then treated to the plates at different concentrations, followed by culture for 24, 48, and 72 hours. […] of WST-8 solution was added to each well of the plate, and the absorbance was measured with a microplate reader using a 450 nm optical filter to measure the formazan produced by the reducing factors in living cells.
(§3) Therefore, the number of living cells could be measured by measuring absorbance.

Hep3B [4] = assay: as above; format: cell-based; details: 24, 48 and 72 hours
Protocol: as §2, §3

SK Hep1 = assay: Cell viability alone and in combination with sorafenib; format: cell-based, Human; details: 1 μM alone
Protocol: (§4) Human liver cancer cell lines (SK Hep1 and Huh-7) were treated with control (no treatment), 0.1 μM of the compound of Example 1, 1 μM of sorafenib, and 0.1 μM of the compound of Example 1/1 μM of sorafenib, and the cell viability of SK Hep1 and Huh-7 was confirmed.

Huh-7 = assay: as above; format: cell-based, Human; details: 1 μM alone
Protocol: as §4

SKOV-3 = assay: Cell viability alone and in combination with cisplatin; format: cell-based, Human; details: 1 μM alone
Protocol: (§5) Human ovarian cancer cell lines (SKOV-3 and OVCAR-3) were treated with control (no treatment), 0.1 μM of the compound of Example 1, 1 μM of cisplatin, and 0.1 μM of the compound of Example 1/1 μM of cisplatin, and the cell viability of SKOV-3 and OVCAR-3 was confirmed.

OVCAR-3 = assay: as above; format: cell-based, Human; details: 1 μM alone
Protocol: as §5

Compound	number of colonies, treated vs not treated (HepG2 [1])	number of colonies, treated vs not treated (Hep3B [2])	cell viability (HepG2 [3])	cell viability (Hep3B [4])	cell viability (SK Hep1)	cell viability (Huh-7)	cell viability (SKOV-3)	cell viability (OVCAR-3)
CNC(=O)c1cc(Oc2ccc(NC(=O)Nc3ccc(Cl)c(C(F)(F)F)c3)cc2)ccn1 [Sorafenib, reference compound]	clear difference in the number of colonies	clear difference in the number of colonies	decreased the cell viability dose and time dependently	decreased the cell viability dose and time dependently	suppressed	suppressed	–	–
N.N.[Cl][Pt][Cl] [cisplatin, reference compound]	–	–	–	–	–	–	suppressed	suppressed
